Where two headings read alike, the source gives them in different places.
Key:
GSK3β [1] = biological target: T1, GSK3β (Homo sapiens, UniProt P49841); conditions: cited from earlier work
T1 construct: purchased Promega V1991

GSK3β [2] = biological target: T1, GSK3β; assay: GSK3β inhibition, luminescence Kinase-Glo assay; type: biochemical; conditions: for Ki: calculated from IC50 by Cheng-Prusoff equation, Km ATP 2.345 µM, read-out: Ki (apparent equilibrium dissociation constant); for IC50: four concentrations 0.1, 1, 10, 30 μM, ATP 1 μM, 1 h
Experimental: GSK3β inhibitory activity was evaluated using the method developed by Baki[66], with modifications. Compounds were dissolved in assay buffer, containing 40 mM Tris (pH 7.5), 20 mM MgCl2, 0.1 mg/ml BSA (bovine serum albumin) and 50 μM dithiothreitol (DTT) at the desired concentrations. Firstly, 10 μl of enzyme (10 ng) and 10 μl of each compound were mixed for 30 min. Then, 20 μl of a mixture of ATP (1 μM) and GSK3β peptidic substrate were added to each well. The mixture was incubated for 60 min at 30 °C. Thereafter, the remaining ATP concentration was measured with the Kinase-Glo system following instructions from the supplier. Luminescence was measured in an Orion II microplate luminometer (Berthold, Germany) as relative light units (RLU). […] IC50 values were calculated by non-linear regression analysis of individual concentration-response curves using GraphPad Prism 5.0 software (San Diego, CA, USA).
The ability of the compounds to inhibit GSK3β was evaluated using the method developed by Baki^9 with some modifications. The tested compounds were dissolved in assay buffer, containing 40 mM Tris (pH 7.5), 20 mM MgCl2, 0.1 mg/ml BSA (bovine serum albumin) and 50 µM dithiothreitol (DTT), to achieve final reaction concentrations of 0.1, 1, 10 and 30 µM. […] The GSK3β inhibition assay was performed in white 96-well plates, in duplicates. Firstly, 10 µl of enzyme (10 ng) were added to each well, followed by 10 µl of the compounds at the desired concentration. After 30 minutes, 20 µl of a mixture of ATP and GSK3β peptidic substrate were added to each well, achieving a final concentration of 1 µM of ATP and 25 of µM peptidic substrate. The mixture was incubated at 30 °C for 60 minutes. Once the reaction was finished, the remaining ATP concentration was measured by adding 40 µl/well of Kinase-Glo reagent. The luminescence was measured in an Orion II microplate luminometer (Berthold, Germany) as relative light units (RLU). The luminescence recorded is proportional to the amount of ATP present in each well.
Apparent Ki for each compound were calculated from GSK3β Km value for ATP, applying the Cheng-Prusoff equation^10,11 in its simplified form: Ki = IC50/(1+([S]/Km)), in which S refers to the ATP concentration and Km is the Michaelis constant of the substrate for GSK3β.

SH-SY5Y cells [3] = assay: Neuroprotection against okadaic acid (tau hyperphosphorylation), MTT; type: cell-based; conditions: 1 μM, 24 h pre-incubation, 18 h co-incubation with OA 20 nM
primary rat glial cells [4] = assay: Nitrite production in LPS-stimulated primary glial cultures (Griess); type: cell-based; conditions: Glial cell, 24 h pre-incubation, 18 h co-incubation with LPS 1 μg/mL, read-out: IC50 nitrite reduction
Excerpt: (§1) Therefore, we envisaged the study of compounds 5a–t as potential anti-inflammatory agents. We used primary rat glial cells treated with lipopolysaccharide (LPS) to induce the production of nitrites and ROS as a model of glial activation. Nitrite production is directly proportional to the expression of the iNOS, that is over-expressed when LPS activates glial cells. ROS production is proportional to NOX activation after stimulation with LPS. Results are summarized in Table 2 as IC50s of nitrite production reduction and ROS production reduction. We have included sulforaphane as control in all experiments (see the Supporting Information).
Glial cells were pre-incubated with increasing concentrations of compounds for 24 hours. Then, treatments were removed and cells were incubated with LPS (1 μg/mL) alone or in presence of each compound at the desired concentration. Nitrite production was assessed 18 hours later by modified Griess assay. Briefly, samples (150 μl) were mixed with dapsone (75 μl) and NEDA (75 μl), and the mixture was incubated at room temperature for 5 min. Light absorption was measured at 550 nm in a microplate reader (Labtech, Offenburg, Germany). All data were normalized to basal nitrite production, considering this value as 100% of nitrite production. IC50 values were calculated from dose-response curves represented as percentage of nitrite production reduction induced by the different concentrations of each compound.
(§2) Mixed glial cultures were obtained from cerebral cortex of 2-5 day-old Sprague-Dawley rats. After removal of blood vessels and meninges, the forebrains were dissociated in DMEM/F12 medium. After mechanical dissociation, cells were plated (3x10^5 cells/ml) in DMEM/F12 medium with 20% fetal bovine serum (FBS) and 1 % penicillin/streptomycin (10,000 units), at 37 °C and in a 5 % CO2-supplemented air atmosphere. After 5 days, medium was substituted by DMEM/F12 medium with 10 % FBS. Cells were cultured for 7-10 days before treatment.
Primary rat glial cells were treated with compounds 5a-t at increasing concentrations (3, 10, 30 and 60 µM) during 24 h. Thereafter, treatments were removed and glial cells were co-incubated with increasing concentrations of each compound and LPS (1 µg/mL) for 18 h more. At the end of this period, supernatant was collected and the presence of nitrites was analyzed by the Griess method with modifications.^20 Each plate included non-treated cells as basal nitrite production, sulforaphane (SFN, 10 µM) as positive control. Briefly, samples (150 µl) were mixed with DAPSONE (75 µl) and NEDA (75 µl), and the mixture was incubated at room temperature for 5 min. Light absorption was measured at 550 nm in a microplate reader (Labtech, Offenburg, Germany). All data were normalized to basal nitrite production, considering this value as 100% of nitrite production. EC50 values were calculated from dose-response curves represented as percentage of nitrite production reduction induced by the different concentrations of each compound. Concentration response curves were fitted by non-linear regression analysis of individual concentration-response curves using GraphPad Prism software (San Diego, CA, USA). EC50 values are expressed as mean ± SEM of four different experiments in triplicate.

primary rat glial cells [5] = assay: ROS production in LPS-stimulated primary glial cultures (H2DCFDA); type: cell-based; conditions: Glial cell, 24 h pre-incubation, 18 h co-incubation with LPS, 3 h with fluorescent dye, read-out: IC50 ROS reduction
Excerpt: as §1
Besides the increase in nitrite production, it is well known that LPS stimulation of microglia also induces the activation of NOX, which induces superoxide free radical production. In fact, this mechanism is synergistic with the expression of iNOS and the production of nitrites. In this respect, there is a body of evidence showing that NOX activation is a major contributor to ROS oxidative stress and neuronal death in AD[57][58]. […] In general, potency to reduce ROS production increased from ortho to para and meta as observed above.
(§3) Primary glial cells were cultured in bottom transparent 96-well black plates following standard protocol. Cells were pre-incubated with the corresponding compound at the selected concentrations, for 24 hours, and therafter, co-incubated with the corresponding compound and LPS (1 μM) during 18 h more. Then, treatments were removed and cells were loaded with the fluorescent probe 2′,7′-dichlorodihydrofluorescein diacetate (H2DCFDA) (10 μM) for 45 minutes in serum free glial culture medium. All experiments included cells treated with culture medium alone (basal). Cells were washed twice with culture medium and fluorescence intensity was recorded in a Fluostar Optima multiwall pate reader (BMG Labtech, Offenburg, Germany) at 485/520 nm as excitation and emission wavelengths respectively, each hour, during 3 hours period. Data were normalized with respect to basal conditions that were considered as 100%.
as §3, with “µM)” for “μM)”, “2',7'-dichlorodihydrofluorescein” for “2′,7′-dichlorodihydrofluorescein”
as §2

[6] = biological target: T2, Nrf2-Keap1 protein-protein interaction (Homo sapiens, UniProt Q14145); assay: Fluorescence polarization assay of Nrf2-Keap1 interaction; type: binding; conditions: ligand concentration 10 µM; read-out: FP % Inhibition (± SEM)
T2 construct: a solution of the Keap1 Kelch domain (200 nM)
Experimental: Data are presented the means ± SEM of two experiments performed in triplicate.
The FP assay was carried out as previously described.^16,17 Inhibitors (10 µM) were plated onto untreated Corning® black 96 well plates containing a solution of the Keap1 Kelch domain (200 nM) and the fluorescent peptide FITC-β-DEETGEF-OH (1 nM) in Dulbecco’s Phosphate Buffered Saline (DPBS) at pH 7.4 (11% final DMSO concentration, 100 µL final volume). Following a 30 min incubation under slow agitation and away from light at room temperature, the plates were transferred to a PHERAstar microplate reader (BMG Labtech, Ortenberg, Germany) and the fluorescence polarisation was recorded. All measurements were recorded in triplicate.

Keap1 Kelch domain = biological target: T3, Keap1 Kelch domain (Homo sapiens, UniProt Q14145); assay: Differential scanning fluorimetry assay; type: binding; conditions: ligand concentration 10 µM
T3 construct: A solution of the Keap1 Kelch domain protein (5 µM)
Experimental: A solution of the Keap1 Kelch domain protein (5 µM) and detection dye SYPRO® orange (5X) in DPBS at pH 7.4 was added onto a qPCR plate containing the compound inhibitor (10 µM, 10% final DMSO concentration, 40 µL final volume). The plate was sealed using an optical foil seal and covered with aluminum foil to protect the dye from light. The plate was then transferred to a plate centrifuge and spun down briefly (200 G, 1 min, room temperature) to remove any bubbles and collect the solution at the bottom of the wells. Following a 30 min incubation at room temperature, the plate was placed into a 7500 Real time PCR machine and the fluorescence intensity at an excitation of 465 nm and emission of 580 nm was recorded during a temperature scan from 25 °C to 95 °C with a temperature ramping rate of 1 °C/min. All measurements were run in triplicate. Life Technologies software was used to set up the run on 7500 Software v.2.0.0 and the initial data processing was carried out on Protein thermal shift solution software. The raw data were exported to MS Excel and analysis was performed using a custom script provided by the Structural Genomics Consortium Oxford.^18 The temperature range over which the protein unfolding occurred was selected and the maximum and minimum (at temperatures below the maximum intensity) fluorescence intensities within this range were determined. The processed data were fitted to the Boltzmann equation by non-linear regression using the Origin Pro software.

HepG2 cells [7] = assay: Hepatotoxicity in HepG2 cell line (MTT); conditions: 24 h
Experimental: (§4) Thus, it is relevant to study the potential neurotoxicity and hepatotoxicity of the novel dual GSK3β inhibitors-Nrf2 inducers 5a–t.
(§5) Viability was measured as MTT reduction in presence of increasing concentrations of derivatives. Values are expressed as LD50 calculated from dose-response curves of four different concentrations.
(§6) HepG2 cells were cultured according to supplier indications in EMEM supplemented with 10 % heat-inactivated FBS, 100 µg/mL streptomycin and 100 units/mL penicillin. Cells were maintained at 37 °C in humidified atmosphere of 95 % air and 5 % CO2. For experimental procedures, cells were cultured in 96-well plates at density of 1x10^5 cells/well. Treatments were performed in 1% FBS medium unless other concentration was specified. Cells were used from 4 up to 13 passages.
(§7) Cells were cultured in 48-well (SH-SY5Y, 1x10^5 cells per well) or 96-well plates (HepG2, 1x10^5 cells per well) for 24 h. […] Control cells were incubated with the same concentration of DMSO (0.1 % final concentration) without any drug.

SH-SY5Y cells [8] = assay: Cytotoxicity in SH-SY5Y neuroblastoma cell line (MTT); conditions: 24 h
Experimental: as §5, §7

Nrf2 = assay: Nrf2-dependent luciferase reporter assay in AREc32 cell line; type: cell-based; conditions: AREc32 cells; for Nrf2 induction (luciferase activity), result in words: 24 h, compound 7 also at 60 and 100 μM; for EC50: Arec32, 24 h, read-out: CD (concentration required to double the luciferase reporter activity)
Experimental: Thereafter, we tested the ability of the compounds to induce the Nrf2 transcription factor. We used an Nrf2-dependent luciferase reporter assay in the AREc32 cell line[45]. Cells were cultured for 24 h and then treated with increasing concentrations of compounds 5a–t (0.3, 3, 10 and 30 μM), including the known inducer sulforaphane, containing an isothiocyanate motive as positive control.
AREc32 cells were plated in 96-well white plates (2 × 10^4 cells/well). After 24 h, cells were incubated with increasing concentrations of each compound in duplicate for 24 h. AREc32 cells express constitutively the plasmid pGL-8xARE that implements 8 copies of the EpRE sequences followed by luciferase reporter gen. Therefore, Nrf2 induction is related to the activation of EpRE sequences, expressing luciferase at the same extent as EpRE sequences are activated. The Luciferase Assay System (Promega E1500), was used according to provider protocol and luminescence was quantified in an Orion II microplate luminometer (Berthold, Germany). Fold induction of luciferase activity was normalized to basal conditions. Data are expressed as CD values, expressing the concentration required to double the luciferase activity. CD values are calculated from dose-response curves generated from fold induction of control conditions vs. inducer concentration and fitted by non-linear regression and data interpolated to 2-fold induction concentration.
Breast cancer cells stably transfected to express luciferase after EpRE sequences MCF-7/AREc32 named AREc32, were kindly provided by Dr. C. Roland Wolf (University of Dundee, UK).^14 AREc32 cells were maintained in DMEM with high glucose-glutamax, supplemented with 10 % FBS, 1 % penicillin-streptomycin (10,000 units), and geneticin (0.8 mg/ml G418) at 37 °C and in a 5 % CO2- air atmosphere.^14
AREc32 cells are constitutively transfected with the pGL-8xARE luciferase reporter gene, inserted after EpRE sequences. Thus, Nrf2 translocation to the nucleus induces the activation of the EpRE sequences, expressing their target phase II antioxidant genes, and expressing luciferase at the same extent.^15 AREc32 cells were plated in 96-well white plates (2X10^4 cells/well). After 24 h, cells were incubated with increasing concentrations of each compound in duplicate for 24 h (dissolved in DMSO to give a final 0.1 % vol/vol concentration of vehicle). Each plate included non-treated cells as basal luciferase expression and tBHQ (10 µM) as positive control. TBHQ is a potent Nrf2 inducer used as control in the development of the AREc32 cells.^14 Transfected clones are selected using G418. AREc32 cells express constitutively the plasmid pGL-8xARE that implements 8 copies of the EpRE sequences followed by a luciferase reporter gene. Therefore, the induction of Nrf2 is proportional to the activation of EpRE sequences, expressing luciferase at the same extent as EpRE sequences are activated. Luciferase production is then assessed by a bioluminescence assay. The Luciferase Assay System (Promega E1500), was used according to the Promega protocol and luminescence was quantified in an Orion II microplate luminometer (Berthold, Germany). Relative Light Units (RLU) were recorded for the contents of each well. Fold induction of luciferase activity was calculated by dividing the RLU obtained for the tests wells for each treatment by the average RLU obtained for the basal conditions. Data are expressed as CD values, expressing the concentration required to double the basal luciferase activity, used to quantify the Nrf2 induction potency. CD values are calculated from dose-response curves generated from fold induction of control conditions vs. inducer concentration and fitted by non-linear regression and data interpolated to value the 2-fold induction concentration, using GraphPad Prism software (San Diego, CA, USA).

SH-SY5Y cells [9] = conditions: human, 24 h
Experimental: as §5, §7

HepG2 cells [10] = conditions: human, 24 h
Experimental: as §4, §5, §6, §7

T1 sequence (P49841 whole entry): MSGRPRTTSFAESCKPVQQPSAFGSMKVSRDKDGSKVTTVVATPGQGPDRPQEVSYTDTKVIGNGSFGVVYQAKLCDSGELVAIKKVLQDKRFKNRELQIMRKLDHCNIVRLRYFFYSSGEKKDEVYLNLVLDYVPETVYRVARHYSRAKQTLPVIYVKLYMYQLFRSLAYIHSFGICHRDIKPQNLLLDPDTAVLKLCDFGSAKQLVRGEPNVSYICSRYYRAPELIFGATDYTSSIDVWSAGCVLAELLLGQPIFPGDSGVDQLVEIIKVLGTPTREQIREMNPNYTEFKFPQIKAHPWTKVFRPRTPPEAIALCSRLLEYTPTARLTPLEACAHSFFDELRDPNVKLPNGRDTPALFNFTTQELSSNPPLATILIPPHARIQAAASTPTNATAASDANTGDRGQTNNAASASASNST
T3 sequence (Q14145 321-609 limits assumed): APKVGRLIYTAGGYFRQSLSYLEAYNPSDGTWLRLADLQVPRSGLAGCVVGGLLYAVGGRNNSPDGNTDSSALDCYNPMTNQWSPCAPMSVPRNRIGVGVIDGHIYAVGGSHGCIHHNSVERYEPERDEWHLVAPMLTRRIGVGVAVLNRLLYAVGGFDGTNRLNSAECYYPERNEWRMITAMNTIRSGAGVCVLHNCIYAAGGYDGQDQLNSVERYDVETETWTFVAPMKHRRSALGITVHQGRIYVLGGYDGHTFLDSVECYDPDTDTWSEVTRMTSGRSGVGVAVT
T2 sequence (Q14145 321-609 limits assumed): as above

Row | Ki (GSK3β [2]) [µM] | IC50 (GSK3β [2]) [µM] | SMILES | IC50 (primary rat glial cells [4]) [µM] | IC50 (primary rat glial cells [5]) [µM] | Nrf2 induction (luciferase activity), result in words (Nrf2) | SH-SY5Y LD50 (SH-SY5Y cells [9]) [µM] | HepG2 LD50 (HepG2 cells [10]) [µM] | EC50 (Nrf2) [µM] | further results
1 | – | – | N#Cc1c(N)nc2[nH]nc(N)c2c1-c1ccccc1 [Compound 2] | – | – | – | – | – | – | IC50 (GSK3β [1]): 1.5 µM
2 | 5.8 | 8.28 ± 0.7 | Cc1[nH]nc2c1C(c1ccncc1)C(C#N)=C(N)O2 (stereo not shown) [Compound 5t, 6-Amino-3-methyl-4-(pyridin-4-yl)-2,4-dihydropyrano[2,3-c]pyrazole-5-carbonitrile] | 28.8 ± 3.61 | 37.8 ± 1.17 | – | – | – | – | Percentage of protection against okadaic acid toxicity (SH-SY5Y cells [3]): over 50%; inhibition at 10 µM [6]: 1.24 ± 3.22%; ΔTm at 10 µM (Keap1 Kelch domain): -0.53 ± 0.28 °C; HepG2 LD50 (HepG2 cells [7]): > 100 µM; SH-SY5Y LD50 (SH-SY5Y cells [8]): > 100 µM
3 | 13.1 | 18.6 ± 0.4 | Cc1[nH]nc2c1C(c1ccccc1)C(C#N)=C(N)N2 (stereo not shown) [Compound 7, 6-amino-3-methyl-4-phenyl-4,7-dihydro-2H-pyrazolo[3,4-b]pyridine-5-carbonitrile] | – | – | completely unable to induce Nrf2 | – | – | – | –
4 | – | – | COc1ccc2[nH]cc(CCNC(C)=O)c2c1 [Melatonin] | – | – | – | > 100 | > 100 | – | –
5 | – | – | Cn1cc(C2=C(c3ccc(Cl)cc3Cl)C(=O)NC2=O)c2ccccc21 [SB216763, reference compound] | – | – | inability of the GSK3β inhibitor SB216763 to induce Nrf2 transcriptional activity | > 100 | > 100 | > 30 | –
6 | – | – | C[S+]([O-])CCCCN=C=S (stereo not shown) [Sulforaphane] | 1.4 ± 0.3 | 2.84 ± 0.55 | – | – | – | 0.54 ± 0.07 | –
